Consider 32 compounds from publication PMC7619385 (ACS infectious diseases, 2025).

The target of the experiment is T1, LmxCLK1 (Leishmania mexicana, UniProt E9AMP2).
T1 sequence (E9AMP2 1-422): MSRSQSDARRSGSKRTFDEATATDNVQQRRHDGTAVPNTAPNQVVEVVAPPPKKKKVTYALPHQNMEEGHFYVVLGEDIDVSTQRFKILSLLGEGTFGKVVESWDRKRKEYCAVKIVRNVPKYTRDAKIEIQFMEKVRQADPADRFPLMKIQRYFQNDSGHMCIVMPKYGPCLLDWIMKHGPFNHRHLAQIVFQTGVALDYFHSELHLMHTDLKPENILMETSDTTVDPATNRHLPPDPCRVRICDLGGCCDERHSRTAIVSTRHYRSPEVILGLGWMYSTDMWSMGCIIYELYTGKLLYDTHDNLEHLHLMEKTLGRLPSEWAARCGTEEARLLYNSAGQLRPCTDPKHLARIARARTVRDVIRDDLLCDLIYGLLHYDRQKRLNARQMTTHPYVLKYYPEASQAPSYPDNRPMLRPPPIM
The experiment is described as follows: biochemical. The format is binding.

[1] abbreviates: DSF, 10 µM compound, 2 µM LmxCLK1, Run 1, read-out: ΔTm Run 1.
Setting [2] is: DSF, 10 µM compound, 2 µM LmxCLK1, Run 2, read-out: ΔTm Run 2.
Where [3] appears, read: DSF, 10 µM compound, 2 µM LmxCLK1, mean of two runs, read-out: ΔTm Average.
Where [4] appears, read: DSF, 10 µM compound, 2 µM LmxCLK1, Run 1.
[5] abbreviates: DSF, 10 µM compound, 2 µM LmxCLK1, Run 2.
The mark [6] stands for this setting: DSF, 10 µM compound, 2 µM LmxCLK1, mean of two runs.

Where two headings read alike, the source gives them in different places.

Turning to `COc1cc(N2CCC(N3CCN(C)CC3)CC2)ccc1Nc1ncc(Cl)c(Nc2ccccc2P(C)(C)=O)n1` [AP26113], the shift in melting temperature (ΔTm) at 10 µM reads like this: under setting [1], 1.1 °C; under setting [2], 0.9 °C; under setting [3], 1 °C.

For `Cc1ccc(NC(=O)c2cccc(C(C)(C)C#N)c2)cc1Nc1ccc2ncn(C)c(=O)c2c1` [AZ 628], the “ΔTm Run 1” value under setting [4] stood at 0.4 °C. Under setting [5], the “ΔTm Run 2” value was determined as 0.2 °C. Also, under setting [6], the “ΔTm Average” value came out at 0.3 °C.

On to `CNC(=O)CN1CCC(Oc2cc3c(Nc4cccc(Cl)c4F)ncnc3cc2OC)CC1` [AZD8931 (Sapitinib)], for which, under setting [4], the “ΔTm Run 1” value was -0.1 °C. For the same compound, the “ΔTm Run 2” value under setting [5] is -0.2 °C. Further, the “ΔTm Average” value under setting [6] is -0.1 °C.

As to `COc1cc2ncc(-c3ccccc3)nc2cc1OC` [Tyrphostin AG 1296], the “ΔTm Run 1” value under setting [4] is 0.3 °C. Further, the “ΔTm Run 2” value under setting [5] was found to be 0.1 °C. In addition, the “ΔTm Average” value under setting [6] was found to be 0.2 °C.

Regarding `CCCCCCCCc1ccc(CCC(N)(CO)CO)cc1.Cl` [Fingolimod (FTY720) HCl], the “ΔTm Run 1” value under setting [4] was 0.2 °C. For the same compound, the “ΔTm Run 2” value under setting [5] is -0.1 °C. Besides, the “ΔTm Average” value under setting [6] was 0.1 °C.

As to `C[C@@H]1COCCN1c1cc(C2(S(C)(=O)=O)CC2)nc(-c2cccc3[nH]ccc23)n1` [AZ20], the “ΔTm Average” value is -0.3, the “ΔTm Run 1” value is -0.2 and the “ΔTm Run 2” value is on record as -0.5.

As for `CC(C)(C)Cn1c(N)nc2ccc(-c3[nH]c(C(C)(C)C)nc3-c3ccc(F)cc3)nc21` [LY2228820], the ΔTm at 10 µM reads like this: under setting [1], -0.3 °C; under setting [2], -0.3 °C; under setting [3], -0.3 °C.

As to `C=CC(=O)Nc1cccc(Oc2nc(Nc3ccc(N4CCN(C)CC4)cc3OC)ncc2Cl)c1` [WZ4002], the ΔTm at 10 µM was -0.1 °C under setting [1], -0.3 °C under setting [2] and -0.2 °C under setting [3].

On to `Cc1c(NC(=O)OC[C@@H]2COCCN2)cn2ncnc(Nc3ccc4c(cnn4Cc4cccc(F)c4)c3)c12` [AC480 (BMS-599626)], for which the “ΔTm Run 1” value under setting [4] came to 0.4 °C. Also, the “ΔTm Run 2” value under setting [5] worked out at 0.2 °C. Under setting [6], the “ΔTm Average” value was 0.3 °C.

Consider `O=C(NOCC(O)CO)c1cc(Br)c(F)c(F)c1Nc1ccc(I)cc1F` (stereo not drawn) [PD318088], for which, under setting [4], the “ΔTm Run 1” value was 0.4 °C. Besides, the “ΔTm Run 2” value under setting [5] amounted to 0.1 °C. Under setting [6], the “ΔTm Average” value turned out to be 0.2 °C.

`Cn1c(=O)c(F)c(Nc2ccc(I)cc2F)c2c(=O)n(C[C@@H](O)CO)cnc21` [TAK-733]: the ΔTm at 10 µM by setting is: under setting [1], 0.2 °C; under setting [2], -0.3 °C; under setting [3], -0.1 °C.

Regarding `C=CC(=O)N1CCC[C@@H](n2nc(-c3ccc(Oc4ccccc4)cc3)c3c(N)ncnc32)C1` [Ibrutinib (PCI-32765)], under setting [4], the “ΔTm Run 1” value came to 0.2 °C. Under setting [5], the “ΔTm Run 2” value was -0.2 °C. Also, the “ΔTm Average” value under setting [6] came to 0.0 °C.

Take `Oc1cccc(-c2nc(N3CCOCC3)c3oc4ncccc4c3n2)c1` [PI-103]: the ΔTm at 10 µM came to 0 °C under setting [1], 0 °C under setting [2] and 0 °C under setting [3].

In the case of `CCOc1cc(N2CCC(O)CC2)ccc1Nc1ncc2c(n1)N(C)c1ccccc1C(=O)N2C` [XMD8-92], the “ΔTm Average” value was -0.3, the “ΔTm Run 1” value is given as -0.2 and the “ΔTm Run 2” value was -0.5.

As for `CCN1CCN(C(=O)Cc2ccc(Nc3ncc(F)c(Nc4ccc(C(=O)Nc5ccccc5Cl)cc4)n3)cc2)CC1` [Aurora A Inhibitor I], the “ΔTm Run 1” value under setting [4] was 0.0 °C. Moreover, the “ΔTm Run 2” value under setting [5] is -0.1 °C. Besides, the “ΔTm Average” value under setting [6] is -0.1 °C.

As to `Cn1cc(-c2[nH]c3cc(NC(=O)[C@H](N)C4CCCCC4)cc4c3c2C=NNC4=O)cn1` [PF-477736], the ΔTm at 10 µM by setting is: under setting [1], 1.3 °C; under setting [2], 1.2 °C; under setting [3], 1.2 °C.

As for `CC(C)(C)NS(=O)(=O)c1cncc(-c2cc(F)c3nc(N)nn3c2)c1` [CZC24832], the ΔTm at 10 µM is 0 °C under setting [1], -0.2 °C under setting [2] and -0.1 °C under setting [3].

As for `C=CC(=O)Nc1cccc(Nc2nc(Nc3ccc(N4CCN(C(C)=O)CC4)cc3OC)ncc2C(F)(F)F)c1` [CO-1686 (AVL-301)], the “ΔTm Run 1” value under setting [4] came out at 0.0 °C. The “ΔTm Run 2” value under setting [5] was -0.3 °C. Under setting [6], the “ΔTm Average” value was -0.1 °C.

Take `C[C@@H](N)[C@H]1CC[C@H](C(=O)Nc2ccncc2)CC1.Cl.Cl` [Y-27632 2HCl]: under setting [4], the “ΔTm Run 1” value was 0.1 °C. Besides, the “ΔTm Run 2” value under setting [5] was found to be 0.1 °C. In addition, the “ΔTm Average” value under setting [6] was 0.1 °C.

For `CCn1c(=O)c(-c2cc[nH]n2)cc2c(C)nc(N)nc21` [SAR245409 (XL765)], the “ΔTm Run 1” value under setting [4] turned out to be 0.1 °C. Moreover, the “ΔTm Run 2” value under setting [5] was -0.2 °C. Besides, the “ΔTm Average” value under setting [6] worked out at 0.0 °C.

On to `N#C/C(=C(/N)Sc1ccc(N)cc1)c1ccccc1C(F)(F)F` [SL-327], for which the “ΔTm Run 1” value under setting [4] is -0.2 °C. Besides, the “ΔTm Run 2” value under setting [5] is -0.2 °C. Further, the “ΔTm Average” value under setting [6] is -0.2 °C.

`NC(=O)Nc1cc(-c2cccc(F)c2)sc1C(=O)N[C@H]1CCCNC1` [AZD7762]: the ΔTm at 10 µM under setting [1] was 3.5 °C, the ΔTm at 10 µM under setting [2] was determined as 3.1 °C and the ΔTm at 10 µM under setting [3] was 3.3 °C.

In the case of `Cn1cnc2c(F)c(Nc3ccc(Br)cc3F)c(C(=O)NOCCO)cc21` [MEK162 (ARRY-162)], the “ΔTm Run 1” value under setting [4] was -0.2 °C. Also, the “ΔTm Run 2” value under setting [5] was -0.4 °C. For the same compound, under setting [6], the “ΔTm Average” value was -0.3 °C.

Turning to `Cl.Cl.Fc1cc(-c2cccc3ncc(-c4cnn(C5CCNCC5)c4)nc23)cc(F)c1CN1CCOCC1` [NVP-BSK805 2HCl], the “ΔTm Run 1” value under setting [4] worked out at 0.9 °C. Also, the “ΔTm Run 2” value under setting [5] was 0.7 °C. For the same compound, the “ΔTm Average” value under setting [6] turned out to be 0.8 °C.

`CCOc1ccn(-c2ccc(F)cc2)c(=O)c1C(=O)Nc1ccc(Oc2ccnc(N)c2Cl)c(F)c1` [BMS-777607]: the ΔTm at 10 µM is 0.5 °C under setting [1], -0.2 °C under setting [2] and 0.2 °C under setting [3].

As to `C#Cc1cccc(Nc2ncnc3cc(OC)c(OCCCCCCC(=O)NO)cc23)c1` [CUDC-101], the shift in melting temperature (ΔTm) at 10 µM is, setting by setting: under setting [1], 0.4 °C; under setting [2], 0.2 °C; under setting [3], 0.3 °C.

As to `O=C(O)c1ccc(Nc2ncc3c(n2)-c2ccc(Cl)cc2C(c2c(F)cccc2F)=NC3)cc1` [MLN8054], the ΔTm at 10 µM runs as follows: under setting [1], 0.3 °C; under setting [2], 0.1 °C; under setting [3], 0.2 °C.

As for `COc1ccc(F)c(F)c1C(=O)c1cnc(NC2CCN(S(C)(=O)=O)CC2)nc1N` [R547], the “ΔTm Average” value is recorded as -0.2, the ΔTm Run 1 turned out to be 0 °C and the “ΔTm Run 2” value is on record as -0.4.

As to `Nc1nc(N)c2nc(-c3cccc(O)c3)cnc2n1` [TG100713], the “ΔTm Average” value is -0.1, the ΔTm Run 1 stood at 0.1 °C and the “ΔTm Run 2” value is on record as -0.2.

As to `Cc1cc([C@@H](C)Nc2ccccc2C(=O)O)c2nc(N3CCOCC3)cc(=O)n2c1` [AZD6482], the ΔTm at 10 µM under setting [1] came to 0.1 °C, the ΔTm at 10 µM under setting [2] was -0.1 °C and the ΔTm at 10 µM under setting [3] was found to be 0 °C.

On to `O=C(Cc1ccc(-c2ccc(OCCN3CCOCC3)cc2)cn1)NCc1ccccc1` [KX2-391], for which the ΔTm Average was 0.1 °C, the ΔTm Run 1 was determined as 0.2 °C and the ΔTm Run 2 was determined as 0 °C.

Take `CCS(=O)(=O)Nc1ccc2c(c1)/C(=C(/Nc1ccc(CN3CCCCC3)cc1)c1ccccc1)C(=O)N2` [Hesperadin]: the ΔTm at 10 µM was 1.7 °C under setting [1], 1.3 °C under setting [2] and 1.5 °C under setting [3].

In general, ΔTm refers to the change in melting temperature against a reference sample.
